The text below walks through data of ChEMBL document CHEMBL1153801, “4-(Benzimidazol-2-yl)-1,2,5-oxadiazol-3-ylamine derivatives: potent and selective p70S6 kinase inhibitors” (Bioorg Med Chem Lett, 2009).

One may read the Ki as the equilibrium dissociation constant of an inhibitor or competing ligand from its target.

In assay [1] the target is Ribosomal protein S6 kinase beta-1 (Homo sapiens, UniProt P23443). As to the kind of experiment: Inhibition of p70S6K assessed as decrease in NADH absorbance at 340 nm in the presence of.
Sequence of Ribosomal protein S6 kinase beta-1 (P23443 whole entry): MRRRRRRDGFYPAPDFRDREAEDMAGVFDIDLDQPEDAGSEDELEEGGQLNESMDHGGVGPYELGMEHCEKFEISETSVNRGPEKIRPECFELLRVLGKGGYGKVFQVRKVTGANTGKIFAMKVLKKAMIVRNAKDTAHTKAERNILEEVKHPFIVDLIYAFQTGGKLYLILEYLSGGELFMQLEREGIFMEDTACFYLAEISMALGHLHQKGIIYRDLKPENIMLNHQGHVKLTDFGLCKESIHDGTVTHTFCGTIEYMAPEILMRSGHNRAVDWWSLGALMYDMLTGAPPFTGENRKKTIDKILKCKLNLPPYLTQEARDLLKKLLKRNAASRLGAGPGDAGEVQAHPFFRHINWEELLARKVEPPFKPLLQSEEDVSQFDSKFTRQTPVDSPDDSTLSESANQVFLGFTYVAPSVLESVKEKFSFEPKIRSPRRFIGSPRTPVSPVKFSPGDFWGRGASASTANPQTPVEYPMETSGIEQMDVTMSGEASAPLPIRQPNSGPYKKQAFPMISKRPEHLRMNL
The target in assay [2] is cAMP-dependent protein kinase catalytic subunit alpha (Homo sapiens, UniProt P17612). As to the kind of experiment: Inhibition of PKAalpha assessed as decrease in NADH absorbance at 340 nm in the presence of.
The target in assay [3] is Glycogen synthase kinase-3 beta (Homo sapiens, UniProt P49841).
Sequence of Glycogen synthase kinase-3 beta (P49841 whole entry): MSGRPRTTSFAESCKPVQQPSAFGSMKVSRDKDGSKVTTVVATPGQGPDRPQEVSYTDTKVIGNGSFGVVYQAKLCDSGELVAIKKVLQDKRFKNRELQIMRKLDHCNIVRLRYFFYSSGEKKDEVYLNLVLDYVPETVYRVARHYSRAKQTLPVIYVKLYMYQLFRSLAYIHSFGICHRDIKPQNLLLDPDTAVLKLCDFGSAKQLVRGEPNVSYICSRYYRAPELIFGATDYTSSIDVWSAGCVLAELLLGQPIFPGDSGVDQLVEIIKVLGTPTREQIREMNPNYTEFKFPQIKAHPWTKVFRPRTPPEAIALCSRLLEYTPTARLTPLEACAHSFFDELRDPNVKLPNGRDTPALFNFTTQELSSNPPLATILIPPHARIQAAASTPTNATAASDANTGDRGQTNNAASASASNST
Assay [4] has as its target Rho-associated protein kinase 1 (Homo sapiens, UniProt Q13464).
Description: Inhibition of ROCK1 assessed as decrease in NADH absorbance at 340 nm in the presence of

Sequence of Rho-associated protein kinase 1 (Q13464 whole entry): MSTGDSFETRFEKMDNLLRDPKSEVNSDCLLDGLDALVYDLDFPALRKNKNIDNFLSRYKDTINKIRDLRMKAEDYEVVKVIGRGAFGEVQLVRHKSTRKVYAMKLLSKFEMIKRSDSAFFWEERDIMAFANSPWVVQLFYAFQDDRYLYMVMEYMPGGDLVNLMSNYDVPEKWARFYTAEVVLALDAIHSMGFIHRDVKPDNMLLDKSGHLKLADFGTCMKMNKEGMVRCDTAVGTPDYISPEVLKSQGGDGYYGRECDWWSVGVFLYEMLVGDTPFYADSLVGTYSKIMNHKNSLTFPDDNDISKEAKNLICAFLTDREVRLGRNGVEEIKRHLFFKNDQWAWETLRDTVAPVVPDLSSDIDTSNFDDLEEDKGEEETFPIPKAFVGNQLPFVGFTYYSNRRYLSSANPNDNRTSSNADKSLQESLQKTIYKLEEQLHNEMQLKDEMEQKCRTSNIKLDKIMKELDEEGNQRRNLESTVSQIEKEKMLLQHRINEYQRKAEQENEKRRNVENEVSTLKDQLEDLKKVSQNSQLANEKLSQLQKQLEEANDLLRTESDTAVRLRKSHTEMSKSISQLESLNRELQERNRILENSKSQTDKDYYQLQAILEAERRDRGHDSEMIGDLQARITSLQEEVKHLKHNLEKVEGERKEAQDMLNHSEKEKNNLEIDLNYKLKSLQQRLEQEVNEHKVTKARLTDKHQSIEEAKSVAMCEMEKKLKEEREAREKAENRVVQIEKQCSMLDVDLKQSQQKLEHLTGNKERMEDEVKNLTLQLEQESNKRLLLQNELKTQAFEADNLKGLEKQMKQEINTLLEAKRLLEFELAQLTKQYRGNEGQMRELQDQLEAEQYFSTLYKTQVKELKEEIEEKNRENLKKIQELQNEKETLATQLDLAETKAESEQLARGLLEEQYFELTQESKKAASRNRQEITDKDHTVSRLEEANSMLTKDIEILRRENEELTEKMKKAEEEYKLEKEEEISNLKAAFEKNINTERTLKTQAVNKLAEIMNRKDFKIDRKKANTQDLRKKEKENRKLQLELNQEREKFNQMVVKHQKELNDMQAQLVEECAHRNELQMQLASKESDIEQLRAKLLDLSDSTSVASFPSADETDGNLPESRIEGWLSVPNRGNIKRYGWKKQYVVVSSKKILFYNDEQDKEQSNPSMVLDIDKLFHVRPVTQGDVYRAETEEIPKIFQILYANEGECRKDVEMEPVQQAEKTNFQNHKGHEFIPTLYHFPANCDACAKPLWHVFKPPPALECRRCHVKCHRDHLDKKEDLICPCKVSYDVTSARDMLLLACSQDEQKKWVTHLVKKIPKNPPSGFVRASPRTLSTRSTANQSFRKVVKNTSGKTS

Turning to `Cc1cn(CC(C)C)c(-c2nonc2N)n1`, the Ki is 340 nM in assay [1], more than 3300 nM in assay [2], 690 nM in assay [3] and more than 3300 nM in assay [4].

For `COc1cccc(-n2c(-c3nonc3N)nc3ccccc32)c1`, the Ki is 1900 nM in assay [1], more than 5000 nM in assay [3] and more than 5000 nM in assay [4].

Take `COc1ccc(-n2c(-c3nonc3N)nc3ccccc32)cc1`: the Ki in assay [1] was 550 nM; in assay [2] it was more than 4000 nM; in assay [3] it was more than 5000 nM; in assay [4], 2100 nM.

For the compound `Nc1nonc1-c1nc2ccccc2n1-c1ccccc1`, the Ki in assay [1] was 110 nM; in assay [2], 1300 nM; in assay [3], 620 nM; in assay [4], 590 nM.

As to `N#Cc1ccccc1-n1c(-c2nonc2N)nc2ccccc21`, the Ki in assay [1] was 26 nM; in assay [2], more than 5000 nM; in assay [3] it was more than 3300 nM; in assay [4], 810 nM.

With `N#Cc1cccc(-n2c(-c3nonc3N)nc3ccccc32)c1`, the inhibition constant Ki in assay [1] is 800 nM; in assay [2], more than 5000 nM; in assay [3], more than 2500 nM; in assay [4] it was more than 2500 nM.

Turning to `N#Cc1ccc(-n2c(-c3nonc3N)nc3ccccc32)cc1`, the inhibitory constant (Ki) is 800 nM in assay [1], more than 5000 nM in assay [2], 1000 nM in assay [3] and more than 2500 nM in assay [4].

For the compound `COc1ccccc1-n1c(-c2nonc2N)nc2ccccc21`, the inhibition constant (Ki) in assay [1] was 31 nM; in assay [2], more than 5000 nM; in assay [3], more than 5000 nM; in assay [4] it was 1300 nM.

For `Cn1c(-c2nonc2N)nc2ccccc21`, the Ki in assay [1] is 540 nM; in assay [2] it was more than 4000 nM; in assay [3], 7300 nM; in assay [4], more than 3300 nM.

For `Nc1nonc1-c1nc2ccccc2n1CC1CCC1`, the Ki came out at 69 nM in assay [1] and 1400 nM in assay [2].

For the compound `Nc1nonc1-c1nc2ccccc2n1C1CCCCC1`, the Ki in assay [1] stood at 12 nM; in assay [2], 600 nM; in assay [3], 240 nM; in assay [4], 720 nM.

With `Nc1nonc1-c1nc2ccccc2n1CC1CC1`, the Ki in assay [1] was determined as 12 nM; in assay [2] it was 380 nM; in assay [3], 290 nM; in assay [4], 360 nM.

`Nc1nonc1-c1nc2cc(O)ccc2n1C1CCC1`: the Ki is less than 1 nM in assay [1], 2800 nM in assay [2], 1100 nM in assay [3] and 2200 nM in assay [4].

`CC(C)Cn1c(-c2nonc2N)nc2ccccc21`: the Ki in assay [1] was found to be 22 nM; in assay [2], 1100 nM; in assay [4], 930 nM.

As to `Cc1ccc2c(c1)nc(-c1nonc1N)n2C1CCC1`, the Ki was 19 nM in assay [1], 2600 nM in assay [2], 3200 nM in assay [3] and more than 3300 nM in assay [4].

Take `CC(C)n1c(-c2nonc2N)nc2ccccc21`: the Ki is 40 nM in assay [1], more than 3300 nM in assay [2], 1500 nM in assay [3] and 1900 nM in assay [4].

On to `CC(C)Cn1cc(-c2ccccc2)nc1-c1nonc1N`, for which the Ki in assay [1] was 89 nM; in assay [2] it was 1200 nM; in assay [3], more than 3300 nM; in assay [4] it was more than 3300 nM.

Consider `Nc1nonc1-c1nc2ccccc2n1C1CC1`, for which the Ki in assay [1] was 95 nM; in assay [2] it was more than 3300 nM; in assay [3] it was more than 3300 nM; in assay [4], 450 nM.

Regarding `Nc1nonc1-c1nc2ccccc2n1C1CCC1`, the Ki stood at 4 nM in assay [1], 540 nM in assay [2], 380 nM in assay [3] and 180 nM in assay [4].

As for `Nc1nonc1-c1nc2ccccc2n1C1CCCC1`, the Ki in assay [1] was found to be 13 nM; in assay [2], 720 nM; in assay [3] it was 210 nM; in assay [4], 340 nM.

Turning to `Nc1ccc2c(c1)nc(-c1nonc1N)n2C1CCC1`, the Ki in assay [1] is less than 1 nM; in assay [2], 34 nM; in assay [3], 2100 nM; in assay [4], 85 nM.

Consider `COc1ccc2c(c1)nc(-c1nonc1N)n2C1CCC1`, for which the Ki in assay [1] was 39 nM; in assay [2] it was 2500 nM; in assay [3], 460 nM; in assay [4], 940 nM.

For the compound `COC(=O)c1ccc2c(c1)nc(-c1nonc1N)n2C1CCC1`, the Ki in assay [1] is 410 nM; in assay [2], more than 3300 nM; in assay [3], more than 3300 nM; in assay [4] it was more than 3300 nM.

With `CC(=O)Nc1ccc2c(c1)nc(-c1nonc1N)n2C1CCC1`, the Ki is 2200 nM in assay [1], more than 3300 nM in assay [2], more than 3300 nM in assay [3] and more than 3300 nM in assay [4].

With `Nc1nonc1-c1nc2cc(CO)ccc2n1C1CCC1`, the Ki in assay [1] is 16 nM; in assay [2], 1500 nM; in assay [3], more than 3300 nM; in assay [4], more than 3300 nM.

As to `CC(C)Cn1cc(C#N)nc1-c1nonc1N`, the Ki in assay [1] is 1600 nM; in assay [2] it was more than 3300 nM; in assay [3], more than 3300 nM; in assay [4], more than 3300 nM.

Consider `CCn1c(-c2nonc2N)nc2ccccc21` [GW549034X], for which the Ki was found to be 50 nM in assay [1], 960 nM in assay [2], 700 nM in assay [3] and 330 nM in assay [4].
